Measured values reported in patent US4530931A, “8-Quinoline carbanilates for the inhibition of lipolysis” (priority 1984, dated 1985).

What was measured:
rat adipocyte lipolysis = experiment: Rat adipocyte assay (epinephrine-stimulated lipolysis, glycerol release); assay type: cell-based; conditions: for IC50: epinephrine 3 μM plus methylisobutylxanthine 10 μM, 1 hour at 37° C., read-out: Adipocyte I50; for Adipocyte % Inhib. at 3 μM: 3 μM compound; for inhibition at 100 µM: read-out: Adipocyte % Inhib. at 100 μM
Experimental: Abdominal fat pads were removed from male rats weighing 200-250 grams and placed in Krebs-bicarbonate buffer gassed with 95% O2 /5% CO2. The fat pads were digested with collagenase for 1 hour at 37° C., washed twice with Krebs-bicarbonate buffer and distributed among a set of 20 ml plastic counting vials. Two such vials received only buffer and cells (4 ml) but no agonists or antagonists. The remaining vials received epinephrine (3 μM) plus the phosphodiesterase inhibitor methylisobutylxanthine (10 μM). Test compounds were dissolved in DMSO or water to a concentration of […] and […] was added to the buffer plus cells in the counting vials. The final compound concentration for routine screening was 200 μM (final concentration of DMSO=1%).
The cells were incubated for 1 hour at 37° C. under a 95% O2 /5% CO2 atmosphere. The incubation was stopped by placing the vials in crushed ice. The cells and medium were transferred to test tubes, centrifuged and the cell layer removed by aspiration. The aqueous phase was assayed for glycerol using the enzyme glycerol dehydrogenase.
The glycerol dehydrogenase assay for glycerol depends on the enzyme catalyzed conversion of glycerol to glyceraldehyde and NAD to NADH. The assay can detect as little as 5-10 nanomoles of glycerol. The aqueous phase, following removal of cells, usually contained about 50 to 80 nanomoles of glycerol per 300 μl of assayed sample if no inhibitory activity was present. Samples from the control tubes (no agonist) usually contained 0-5 nanomoles of glycerol per 300 μl of sample.

Canine cardiac lipases = experiment: Myocardial lipase assay; assay type: biochemical; conditions: for Lipase % Inh. at 100 μM: 100 μM compound, tested in duplicate; for IC50: triolein emulsion, Tris pH 6.8, read-out: Lipase I50
Experimental: All compounds were dissolved in DMSO (final concentration 3.0%) and tested in duplicate at a concentration of 100 μM. Canine cardiac lipases were obtained by extracting washed heart membranes with buffer plus heparine and a small amount of Triton X-100 detergent. Because these enzymes are only active at an oil-water interface, the enzyme reaction is run in an oil-water emulsion that contains triolein substrate, Tris buffer (50mM, pH 6.8) and a small amount of bovine serum albumin (0.5%) added to stabilize the emulsion. A small amount of tritiated triolein was added to the unlabelled triolein substrate. Tritium-labelled oleic acid released by the lipases was extracted into hexane, separated from unreacted triolein and counted in a scintillation counter. Inhibitory agents reduce the amount of radioactivity appearing in the free fatty acid fraction isolated in the extraction procedure.

[1] = Rattus norvegicus, Adipocyte, 100 μM compound

| Compound | Lipase % Inh. at 100 μM (Canine cardiac lipases) | Adipocyte % Inhib. at 3 μM (rat adipocyte lipolysis) | further results |
| --- | --- | --- | --- |
| 2-methoxyphenyl-8-quinoyl carbamate [No. 5] | 72% | – | IC50 (rat adipocyte lipolysis): 5.8 µM |
| 8-quinolyl-3-chloro carbanilate [No. 9] | – | – | Adipocyte % Inhib. at 200 μM (rat adipocyte lipolysis; 200 μM compound): 4%; IC50 (Canine cardiac lipases): 7300 µM |
| 5-chloro-8-quinolyl carbanilate [No. 22] | 68% | 29% | – |
| COc1ccccc1NC(=O)Oc1cccc2cccnc12 [No. 2, 8-quinolyl-2-methoxy carbanilate] | – | – | IC50 (Canine cardiac lipases): 40 µM |
| 4-Methoxyphenyl-8-quinolyl Urea [No. 6] | 70% | – | Adipocyte % Inhib. at 100 μM (rat adipocyte lipolysis; 100 μM compound): 98% |
| COc1ccc(CC(=O)Oc2cccc3cccnc23)cc1 [No. 30, 8-Quinoloyl-4-methoxyphenylAcetate] | – | – | inhibition at 100 µM (rat adipocyte lipolysis; [1]): 74% |
| COc1cccc(NC(=O)Oc2cccc3cccnc23)c1 [No. 3, 8-quinolyl-3-methoxy carbanilate] | – | – | IC50 (Canine cardiac lipases): 18 µM |
| 8-quinolyl-4-chloro carbanilate [No. 8] | – | – | IC50 (rat adipocyte lipolysis): 30 µM; IC50 (Canine cardiac lipases): 20 µM |
| 8-quinolyl-3-trifluoromethyl carbanilate [No. 14] | 63% | 76% | – |
| 8-quninolyl-4-carbethoxy carbanilate [No. 7] | 75% | – | Adipocyte % Inhib. at 30 μM (rat adipocyte lipolysis; 30 μM compound): 3% |
| 8-quinolyl-3-methyl carbanilate [No. 12] | 41% | 5% | – |
| COc1ccc(NC(=O)Oc2cccc3cccnc23)cc1 [No. 1, 8-Quinolyl-4-Methoxy Carbanilate] | – | – | IC50 (Canine cardiac lipases): 17 µM |
| 2-methyl-8-quinolyl carbanilate [No. 19] | – | – | IC50 (rat adipocyte lipolysis): 10 µM; IC50 (Canine cardiac lipases): 48 µM |
| 2-methyl-8-quinolyl-4-methoxy carbanilate [No. 20] | – | 5% | IC50 (Canine cardiac lipases): 80 µM |
| 8-quinolyl-2-methyl carbanilate [No. 13] | 1% | – | – |
| 8-quinolyl-4-methyl carbanilate [No. 11] | 58% | 52% | – |
| 8-quinolyl-2-chloro carbanilate [No. 10] | – | – | Adipocyte % Inhib. at 200 μM (rat adipocyte lipolysis; 200 μM compound): 44%; IC50 (Canine cardiac lipases): 200 µM |

More lines, main results first:

| Lipase % Inh. at 100 μM (Canine cardiac lipases) | Compound | Adipocyte % Inhib. at 3 μM (rat adipocyte lipolysis) | further results |
| --- | --- | --- | --- |
| 74% | 8-Quinolyl-4-methoxy Acetanilide [No. 25] | – | IC50 (rat adipocyte lipolysis): 35 µM |
| 56% | (R)8-quinolyl alpha-methyl benzyl carbamate [No. 29] | – | Adipocyte % Inhib. at 200 μM (rat adipocyte lipolysis; 200 μM compound): 28% |
| 56% | 8-quinolyl-4-bromo carbanilate [No. 17] | 7% | – |
| 68% | 5,7-dichloro-8-quinolyl carbanilate [No. 24] | – | IC50 (rat adipocyte lipolysis): 0.2 µM |
| 7% | 8-quinolyl-2,5-dimethoxy carbanilate [No. 16] | 40% | – |
| 64% | 8-quinolyl-2,4-dimethoxy carbanilate [No. 15] | 84% | – |
| 65% | 8-quinolyl-carbanilate [No. 18] | – | IC50 (rat adipocyte lipolysis): 0.2 µM |
| 69% | 8-quinolyl-4-methoxy phenethyl carbamate [No. 27] | 4% | – |
| 83% | (S)8-quinolyl alpha-methyl benzyl carbamate [No. 28] | – | Adipocyte % Inhib. at 200 μM (rat adipocyte lipolysis; 200 μM compound): 14% |
| 7% | COc1ccc(NC(=O)COc2cccc3cccnc23)cc1 [compound 25] | – | inhibition at 100 µM (rat adipocyte lipolysis; [1]): 26% |
| 76% | 8-(4-Methoxyphenylcarbamoyl)-quinolin)-5-sulfonic acid, Triethylamine [No. 23] | – | IC50 (rat adipocyte lipolysis): 35 µM |
| 13% | COc1ccc(C(=O)Oc2cccc3cccnc23)cc1 [No. 31, 8-quinolyl-4-methoxy benzoate] | – | inhibition at 200 µM (rat adipocyte lipolysis; Rattus norvegicus, Adipocyte, 200 μM compound, read-out: Adipocyte % Inhib. at 200 μM): 49% |
| 68% | 8-quinolyl-4-methoxy benzyl carbamate [No. 26] | 5% | – |
| 69% | 2-methyl-8-quinolyl-4-bromo carbanilate [No. 21] | 28% | – |
